Laboratory results as given in the NIST ThermoML archive (doi:10.1021/je200811n).

Conditions: Hot wire method

C=C(F)C(F)(F)F [2,3,3,3-tetrafluoro-1-propene]
Conditions | thermal conductivity [W/m/K]
342.27 K, 1904 kPa, Gas | 0.01971
342.28 K, 12111 kPa, Liquid | 0.06144
342.29 K, 302 kPa, Gas | 0.0175
342.29 K, 1736 kPa, Gas | 0.01924
342.29 K, 1903 kPa, Gas | 0.01966
342.32 K, 459 kPa, Gas | 0.01763
342.32 K, 17157 kPa, Liquid | 0.06503
342.34 K, 1573 kPa, Gas | 0.01875
342.34 K, 2096 kPa, Liquid | 0.05065
342.36 K, 21715 kPa, Liquid | 0.06785
342.4 K, 8195 kPa, Liquid | 0.05822
342.43 K, 1404 kPa, Gas | 0.01834
342.44 K, 12112 kPa, Liquid | 0.06137
342.47 K, 949 kPa, Gas | 0.01781
342.47 K, 1242 kPa, Gas | 0.01809
342.5 K, 813 kPa, Gas | 0.01767
342.5 K, 1096 kPa, Gas | 0.01796
342.51 K, 1904 kPa, Gas | 0.01989
342.52 K, 1841 kPa, Gas | 0.01962
342.52 K, 1904 kPa, Gas | 0.01982
342.52 K, 5181 kPa, Liquid | 0.05511
342.54 K, 939 kPa, Gas | 0.01779
342.55 K, 1735 kPa, Gas | 0.01923
342.56 K, 303 kPa, Gas | 0.01766
342.56 K, 8193 kPa, Liquid | 0.05802
342.6 K, 17155 kPa, Liquid | 0.06501
342.61 K, 1572 kPa, Gas | 0.01878
342.63 K, 201 kPa, Gas | 0.01782
342.63 K, 21712 kPa, Liquid | 0.06777
342.66 K, 458 kPa, Gas | 0.01768
342.66 K, 2094 kPa, Liquid | 0.05079
342.69 K, 5181 kPa, Liquid | 0.05482
342.72 K, 1403 kPa, Gas | 0.01842
342.73 K, 12110 kPa, Liquid | 0.06135
342.75 K, 102 kPa, Gas | 0.01803
342.77 K, 1903 kPa, Gas | 0.01985
342.77 K, 17154 kPa, Liquid | 0.06488
342.78 K, 1241 kPa, Gas | 0.01818
342.78 K, 1841 kPa, Gas | 0.01962
342.79 K, 948 kPa, Gas | 0.01785
342.79 K, 1904 kPa, Gas | 0.01984
342.79 K, 21708 kPa, Liquid | 0.06775
342.82 K, 1095 kPa, Gas | 0.01798
342.83 K, 812 kPa, Gas | 0.01775
342.83 K, 1734 kPa, Gas | 0.01925
342.86 K, 939 kPa, Gas | 0.01784
342.86 K, 8191 kPa, Liquid | 0.05808
342.89 K, 1571 kPa, Gas | 0.01877
342.9 K, 12107 kPa, Liquid | 0.06122
342.91 K, 302 kPa, Gas | 0.01773
343.01 K, 201 kPa, Gas | 0.01784
343.01 K, 5178 kPa, Liquid | 0.05499
343.02 K, 458 kPa, Gas | 0.0177
343.03 K, 1402 kPa, Gas | 0.01843
343.03 K, 1903 kPa, Gas | 0.01984
343.05 K, 8190 kPa, Liquid | 0.05781
343.05 K, 17151 kPa, Liquid | 0.06493
343.06 K, 1840 kPa, Gas | 0.01962
343.06 K, 1904 kPa, Gas | 0.01984
343.06 K, 21708 kPa, Liquid | 0.06763
343.1 K, 1240 kPa, Gas | 0.01819
343.12 K, 946 kPa, Gas | 0.01784
343.12 K, 1733 kPa, Gas | 0.0192
343.14 K, 1094 kPa, Gas | 0.01802
343.15 K, 102 kPa, Gas | 0.01805
343.17 K, 2093 kPa, Liquid | 0.05051
343.19 K, 810 kPa, Gas | 0.0178
343.2 K, 938 kPa, Gas | 0.0179
343.2 K, 12105 kPa, Liquid | 0.06126
343.21 K, 1570 kPa, Gas | 0.01879
343.21 K, 5176 kPa, Liquid | 0.05461
343.25 K, 17149 kPa, Liquid | 0.06474
343.25 K, 21706 kPa, Liquid | 0.06757
343.29 K, 302 kPa, Gas | 0.01776
343.29 K, 606 kPa, Gas | 0.01775
343.35 K, 1401 kPa, Gas | 0.01847
343.36 K, 8188 kPa, Liquid | 0.05795
343.39 K, 2092 kPa, Liquid | 0.05007
343.4 K, 200 kPa, Gas | 0.01785
343.41 K, 459 kPa, Gas | 0.01776
343.41 K, 12104 kPa, Liquid | 0.06108
343.43 K, 1239 kPa, Gas | 0.01822
343.48 K, 945 kPa, Gas | 0.01791
343.49 K, 1093 kPa, Gas | 0.01807
343.53 K, 5176 kPa, Liquid | 0.05477
343.55 K, 809 kPa, Gas | 0.01783
343.55 K, 937 kPa, Gas | 0.01797
343.56 K, 102 kPa, Gas | 0.01807
343.58 K, 8186 kPa, Liquid | 0.0576
343.68 K, 606 kPa, Gas | 0.0178
343.69 K, 302 kPa, Gas | 0.01781
343.72 K, 2091 kPa, Liquid | 0.05023
343.77 K, 5174 kPa, Liquid | 0.05432
343.8 K, 200 kPa, Gas | 0.0179
343.8 K, 459 kPa, Gas | 0.0178
343.99 K, 2090 kPa, Liquid | 0.05015
344 K, 103 kPa, Gas | 0.01811
344.09 K, 302 kPa, Gas | 0.01783
344.23 K, 199 kPa, Gas | 0.01797
344.46 K, 103 kPa, Gas | 0.01816

Conditions | thermal conductivity [W/m/K]
343.15 K, Liquid | 0.05091
